Data as given in US11904051B2, “Shear stress sensitive liposomes” (Universität Basel, priority 2018, dated 2024).
One block for each molecule: values may come before it.

Columns and labels:
[1] = Cryo-TEM of liposomal suspensions of the SANS study; format: physicochemical
Procedure: The liposomal suspensions were diluted at a ratio of 1:2 with D2O, to a final concentration of 5 mg/mL. Next, 4 μL aliquots of each suspension were adsorbed onto a holey carbon-coated grid (Lacey, Tedpella, USA), blotted with Whatman 1 filter paper and vitrified into liquid ethane at a temperature of −178° C., using a Leica GP plunger (Leica, Austria). Frozen grids were transferred onto a Talos electron microscope (Thermo Fisher, USA), using a Gatan 626 cryo-holder. Electron micrographs were recorded at an accelerating voltage of 200 kV and a nominal magnification of 45,000×, using a low-dose system (20 e^−/Å^2) and keeping the sample at liquid nitrogen temperature. Micrographs were recorded on the CETA camera. Pixel size at the sample level was (3.26 Å)^2.

[2] = Small-angle neutron scattering (SANS) of liposomes as a function of temperature; format: physicochemical; parameters: key to Eccentricity: ε = c/R axis ratio; <1 oblate, 1 spherical, >1 prolate
Text: In order to determine the structural parameters, including the bilayer thickness of the selected liposomal formulations, a suitable model for data fitting has to be identified. […] The structure factor was fitted using the sticky hard sphere model (Baxter et al., The Journal of Chemical Physics 1968, 49 (6), 2770-2774; Mays, Langmuir 1989, 5, 422-428). In order to adjust the form factor to the overall shape of the liposomes, an ellipsoidal shell model with a homogeneous cross-section (Guinier, Annales de Physique, 1939; pp 161-237) was applied. The elliptical shell model is defined by three orthogonal axes with lengths a=R, b=R and c=εR, along with eccentricity ε>0, (ε<1: oblate, ε=1: spherical, ε>1: prolate). The model also accounts for variations in bilayer thickness and liposome size. As the scattering data of the Pad-PC-Pad liposomes at the temperature of 35° C. could not be approximated satisfactorily by means of the ellipsoidal shell, the inventors included disks with a homogeneous cross-section—an approach motivated by the cryo-TEM results. Together with the experimental data of the Pad-PC-Pad liposomes at three selected temperatures, the obtained fits are represented in FIG. 23.
The inventors recognised that the inhomogeneity of the liposomal formulations, except for Pad-PC-Pad, concerning the shape and size of the artificial lipids in this study only allows for the reasonable fitting of the q-range, which corresponds to bilayer thickness. For this purpose, the inventors applied an extended Guinier law (Hjelm et al., The Journal of Physical Chemistry B 2000, 104 (2), 197-211; Fratzl, Journal of Statistical Physics 1994, 77 (1-2), 125-143), which yields the thickness of the bilayer. To account for possible multi-lamellarity, the inventors included a para-crystalline stacking model (Schwartz et al., Biophysical journal 1975, 15 (12), 1201-1233; FruÈhwirth et al., Journal of Applied Crystallography 2004, 37 (5), 703-710) as a structure factor.
SANS measurements were performed at the SANS-I beamline at the Swiss Spallation Neutron Source SINQ facility (Paul Scherrer Institute, Villigen, Switzerland). The samples were loaded into 2 mm-path length, boron-free quartz glass cells and mounted in a temperature-controlled holder. This system allows for controlling the temperature of the specimen with an accuracy better than 1 K. The liposomal suspensions were measured between 22 and 42° C. in 3 to 4 K steps. Subsequently, the suspensions were cooled down to room temperature (22° C.) and measured again. Three detector distances, i.e. 1.6, 6.0 and 18.0 m, were used to collect data over the range of scattering vectors 0.01 nm^−1<q<10 nm^−1 at the neutron wavelengths (A) […]. Data were collected with a two-dimensional ^3He-detector with an array of 128×128 pixels and reduced to one-dimensional I(q) scattering curves, thus radially averaging the two-dimensional images. The data were corrected for transmission, background scattering and detector efficiency according to a standard procedure using the BerSANS software package (Keiderling, Applied Physics A 2002, 74 (1), s1455-s1457; Strunz et al., Journal of Applied Crystallography 2000, 33 (3 Part 1), 829-833).
The SANS data were analysed using SASfit software (Breßler et al., Journal of Applied Crystallography 2015, 48 (5), 1587-1598) and corresponding models. A Pad-PC-Pad sample was fitted over the entire measured q-range, whereas we restricted the fit for the other samples to the q-range, which corresponds to lipid bilayer thickness. For Pad-PC-Pad, the inventors used an ellipsoidal shell model with a homogeneous cross-section (Guinier, Annales de Physique, 1939; pp 161-237) and size distributions in terms of both thickness and radius. […]

[3] = 22 ° C. (after cooling down to room temperature)
[4] = 35 ° C., contribution for disks accounted for

mean size of liposomes derived from cryo-TEM images ([1]; after SANS heat treatment and eight months' storage): 87±20 nm
multi-lamellar liposomes ([1]; determined by cryo-TEM): About 16%
most probable bilayer thickness ([2]; 22 ° C.): 4.59 nm
most probable bilayer thickness [2, 3]: 4.67 nm
most probable bilayer thickness ([2]; 25 ° C.): 4.58 nm
most probable bilayer thickness ([2]; 28 ° C.): 4.62 nm
most probable bilayer thickness ([2]; 32 ° C.): 4.61 nm
most probable bilayer thickness ([2]; 35 ° C.): 4.61 nm
most probable bilayer thickness ([2]; 39 ° C.): 4.65 nm
most probable bilayer thickness ([2]; 42 ° C.): 4.65 nm
Structure (SMILES): CCCCCCCCCCCCCCCC(=O)OC[C@H](COP(=O)([O-])OCC[N+](C)(C)C)OC(=O)CCCCCCCCCCCCCCC [DPPC, 1,2-dipalmitoyl-sn-glycero-3-phosphocholine]

most probable bilayer thickness ([2]; 22 ° C.): 4.55 nm
most probable bilayer thickness [2, 3]: 4.45 nm
most probable bilayer thickness ([2]; 25 ° C.): 4.57 nm
most probable bilayer thickness ([2]; 28 ° C.): 4.55 nm
most probable bilayer thickness ([2]; 32 ° C.): 4.51 nm
most probable bilayer thickness ([2]; 35 ° C.): 4.45 nm
most probable bilayer thickness ([2]; 39 ° C.): 4.35 nm
most probable bilayer thickness ([2]; 42 ° C.): 4.4 nm
thermal stability of liposomes ([2]; temperature range between 22 and 42° C.): thermally stable up to 42 °C
Structure (SMILES): CCCCCCCCCCCCCCCCC(=O)NCC(CNC(=O)CCCCCCCCCCCCCCCC)OP(=O)([O-])OCC[N+](C)(C)C [Rad-PC-Rad, 1,3-diheptadecanamidopropan-2-yl (2-(trimethylammonio)ethyl) phosphate]

diameter of flattened liposomes and/or bicelles (cryo-TEM) ([1]; heated above Tm): about 50 nm
average size of liposomes estimated from cryo-TEM images ([1]; not heated above transition temperature): 92±14 nm
Bilayer thickness ([2]; 22 ° C.): 3.46 ± 1.07 nm
Eccentricity ([2]; 22 ° C.): 0.35
Radius ([2]; 22 ° C.): 69.96 ± 19.05 nm
Bilayer thickness [2, 3]: 4.18 ± 0.70 nm
Eccentricity [2, 3]: 0.04
Radius [2, 3]: 70.41 ± 31.77 nm
Bilayer thickness ([2]; 25 ° C.): 3.38 ± 0.94 nm
Eccentricity ([2]; 25 ° C.): 0.35
Radius ([2]; 25 ° C.): 66.22 ± 21.15 nm
Bilayer thickness ([2]; 28 ° C.): 3.34 ± 0.91 nm
Eccentricity ([2]; 28 ° C.): 0.32
Radius ([2]; 28 ° C.): 69.96 ± 16.31 nm
Bilayer thickness ([2]; 32 ° C.): 3.37 ± 0.89 nm
Eccentricity ([2]; 32 ° C.): 0.31
Radius ([2]; 32 ° C.): 69.90 ± 15.93 nm
Bilayer thickness [2, 4]: 3.42 ± 0.88 nm
Eccentricity [2, 4]: 0.88
Radius [2, 4]: 64.91 nm
Bilayer thickness ([2]; 39 ° C.): 3.37 ± 0.76 nm
Eccentricity ([2]; 39 ° C.): 0.04
Radius ([2]; 39 ° C.): 71.96 ± 5.40 nm
Bilayer thickness ([2]; 42 ° C.): 3.57 ± 0.74 nm
Eccentricity ([2]; 42 ° C.): 0.05
Radius ([2]; 42 ° C.): 71.35 ± 5.01 nm
increase in bilayer thickness after the heating cycle ([2]; temperature cycle to 42° C. including cooling to room temperature): 21%
Structure (SMILES): CCCCCCCCCCCCCCCC(=O)NCC(CNC(=O)CCCCCCCCCCCCCCC)OP(=O)([O-])OCC[N+](C)(C)C [Pad-PC-Pad, 1,3-palmitoylamido-1,3-deoxy-sn-glycero-2-phosphatidylcholine]
